Source: US20240368133A1, “Compounds for the Treatment of Pain, in Particular, Neuropathic Pain, and/or Other Diseases or Disorders that are Associated with AT2R and/or AT2R Mediated Signaling” (Confo Therapeutics N.V., priority 2021, published 2024)

Assays:
[1] = molecular target: human AT2R fused to Cb23 (Homo sapiens, UniProt P50052); assay: Radioligand binding assay, displacement of 125I-[Sar1, Ile8]-Angiotensin II, hAT2R Cb23; conditions: displacement of 125I-[Sar1, Ile8]-Angiotensin II, human AT2R fused to Cb23, HEK-293 cell membrane preparations; read-out: Binding affinity on hAT2R_Cb23 IC50
Summary of the method: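 Membranes from HEK-293 cells expressing human AT2R fused to Cb23 were incubated with 0.05 nM 125I-[Sar1, Ile8]-Angiotensin II in 100 μL buffer (50 mM Tris, 5 mM MgCl2, 1 mM EDTA, 0.1% BSA, pH 7.4) for one hour at 25° C. Ligands were tested as eight-point dose-response curves in duplicate, with C21 and Angiotensin II as references.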

[2] = molecular target: human AT1R (Homo sapiens (Human), UniProt P30556); assay: Counterscreen radioligand binding assay, displacement of 125I-[Sar1, Ile8]-Angiotensin II, hAT1R WT; conditions: for inhibition at 1 µM / inhibition at 10 µM: 125I-[Sar1, Ile8]-Ang II, semi-quantitative score; for inhibition at 1 µM: compound at 1 μM, read-out: % Displaced radioligand at 1 μM; for inhibition at 10 µM: compound at 10 μM, read-out: % Displaced radioligand at 10 μM; for IC50: HEK-293 cell membranes, read-out: Binding affinity On hAT1R IC50
Summary of the method: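 Compounds displaced 0.05 nM 125I-[Sar1, Ile8]-Ang II from human AT1R in HEK-293 membranes (1 h, 25° C; Tris/MgCl2/EDTA/BSA buffer, pH 7.4). Readout was filtration and scintillation counting, with non-specific binding set by 10 μM [Sar1]-Ang II. Values are % displacement at 1 μM and […], or IC50 from eight-point four-parameter fits.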

[3] = molecular target: CYP2C19 (Homo sapiens (Human), UniProt P33261); assay: CYP inhibition, CYP2C19; format: in vitro ADME; conditions: test compound at 10 μM, read-out: % Inhibition (PIN) 2C19
Protocol: (§1) The aim of this assay is to determine the inhibitory potential of a test compound. A major concern for drug-drug-interaction is cytochrome P450 inhibition. Reversible CYP inhibition was determined in human liver microsomes using specific probe substrates for human cytochrome P450 isoenzymes CYP1A2, 2C9, 2C19, 2D6 and 3A4. […]
(§2) A 10 mM stock solution of test compound is prepared in methanol. This stock is further serially diluted 1:3 in methanol and then added to mixture containing 50 mM potassium phosphate buffer pH7.4, human liver microsomes (BD Gentest) and probe substrate. After pre-warming 5 min at 37° C., the reaction is started by adding co-factor mix ([…] glucose-6-phosphate, 1.7 mg/mL NADP, 6 U/mL of glucose-6-phosphate dehydrogenase), resulting in a final concentration of test compound at 10 μM (2% MeOH).
(§3) Final concentrations of co-factor mix components are as follows: 1.56 mg/mL glucose-6-phosphate, 0.34 mg/mL NADP, 1.2 U/mL of glucose-6-phosphate dehydrogenase.
(§4) After incubation at 37° C., the reaction (aliquot of 50 μL) is terminated with 150 μL CH3CN:MeOH (2:1) solution with internal standard (warfarin for 2C9, diclofenac for all other tested isoforms). Samples are centrifuged and the supernatant fractions analyzed by LC-MS/MS.
(§5) The instrument responses (ratio of test compound and internal standard peak areas) are referenced to those for solvent controls (assumed as 100%) in order to determine the percentage reduction in probe metabolism. Percent of control activity vs. concentration plots are generated and fitted using GraphPad Prism software to generate IC50.

[4] = molecular target: CYP2D6 (Homo sapiens (Human), UniProt P10635); assay: CYP inhibition, CYP2D6; format: in vitro ADME; conditions: test compound at 10 μM, read-out: % Inhibition (PIN) 2D6
Protocol: as §1, §2, §3, §4, §5

[5] = molecular target: CYP3A4 (Homo sapiens (Human), UniProt P08684); assay: CYP inhibition, CYP3A4; format: in vitro ADME; conditions: human; test compound at 10 μM, probe not marked; read-out: % Inhibition (PIN) 3A4
Protocol: The aim of this assay is to determine the inhibitory potential of a test compound. A major concern for drug-drug-interaction is cytochrome P450 inhibition. Reversible CYP inhibition was determined in human liver microsomes using specific probe substrates for human cytochrome P450 isoenzymes CYP1A2, 2C9, 2C19, 2D6 and 3A4.
The potential for CYP450 inhibition was assessed by performing in vitro inhibition studies using fluorogenic CYP450 substrates with the corresponding CYP450 enzymes and NADPH regeneration system (Vivid CYP450 Screening Kits) with some minor changes to the manufacturer's protocols. The fluorescent signal produced from reaction is directly proportional to the cytochrome P450 activity. In the cases when tested compounds interfere with the CYP450 enzyme-substrate reaction, the fluorescent signal decreases. In brief, the tested compounds were first dissolved in DMSO at 100× concentration (1 mM), and diluted in buffer to 2.5× concentration (25 μM). Then the 2.5× compound solutions were mixed with the Master Pre-mix consisting of Human CYP450+Oxidoreductase and NADP+Regeneration System (glucose-6-phosphate and glucose-6-phosphate dehydrogenase). After 10 minutes pre-incubation, the enzymatic reaction was initiated by the addition of a mix of NADPH and the appropriate CYP450 substrates. The plate was incubated for the desired reaction time (25 min for CYP1A2, CYP2C9, CYP2D6, and CYP3A4, 60 min for CYP2C19) after which Stop Reagent was added and fluorescence measured using SpectraMax Paradigm Multi-Mode Microplate Reader. All test points were performed in quadruplicates at concentration 10 μM (1% DMSO).
as §2, §3, §4, §5

Chain of CYP2D6 (P10635 whole entry): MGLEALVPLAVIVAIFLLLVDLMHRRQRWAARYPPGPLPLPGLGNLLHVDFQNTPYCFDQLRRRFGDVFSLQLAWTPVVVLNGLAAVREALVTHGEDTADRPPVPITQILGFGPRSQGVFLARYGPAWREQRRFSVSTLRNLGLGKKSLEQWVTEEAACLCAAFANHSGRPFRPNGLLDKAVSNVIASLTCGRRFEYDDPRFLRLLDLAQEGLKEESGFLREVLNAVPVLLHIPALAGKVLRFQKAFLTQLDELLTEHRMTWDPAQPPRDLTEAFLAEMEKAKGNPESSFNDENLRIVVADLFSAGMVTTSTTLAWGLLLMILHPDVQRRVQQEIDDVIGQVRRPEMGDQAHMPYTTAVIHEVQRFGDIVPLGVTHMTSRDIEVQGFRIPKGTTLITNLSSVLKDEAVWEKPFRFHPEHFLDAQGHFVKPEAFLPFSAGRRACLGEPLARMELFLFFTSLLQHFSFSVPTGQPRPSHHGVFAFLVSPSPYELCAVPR
Chain of CYP2C19 (P33261 whole entry): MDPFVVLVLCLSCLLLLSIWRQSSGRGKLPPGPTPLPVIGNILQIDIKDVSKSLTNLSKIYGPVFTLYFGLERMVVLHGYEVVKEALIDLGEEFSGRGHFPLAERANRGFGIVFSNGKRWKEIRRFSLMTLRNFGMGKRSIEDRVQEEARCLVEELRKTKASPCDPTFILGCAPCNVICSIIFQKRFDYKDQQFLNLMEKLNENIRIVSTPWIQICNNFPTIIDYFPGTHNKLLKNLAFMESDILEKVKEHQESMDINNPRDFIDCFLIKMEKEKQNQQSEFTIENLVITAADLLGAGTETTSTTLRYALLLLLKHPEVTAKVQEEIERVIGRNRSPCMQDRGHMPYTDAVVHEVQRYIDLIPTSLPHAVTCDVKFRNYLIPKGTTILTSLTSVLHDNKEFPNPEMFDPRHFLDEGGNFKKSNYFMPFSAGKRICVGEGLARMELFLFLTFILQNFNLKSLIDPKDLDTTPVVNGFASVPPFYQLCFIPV
Chain of human AT2R fused to Cb23 (P50052 whole entry, looked up, the tested form may be a part): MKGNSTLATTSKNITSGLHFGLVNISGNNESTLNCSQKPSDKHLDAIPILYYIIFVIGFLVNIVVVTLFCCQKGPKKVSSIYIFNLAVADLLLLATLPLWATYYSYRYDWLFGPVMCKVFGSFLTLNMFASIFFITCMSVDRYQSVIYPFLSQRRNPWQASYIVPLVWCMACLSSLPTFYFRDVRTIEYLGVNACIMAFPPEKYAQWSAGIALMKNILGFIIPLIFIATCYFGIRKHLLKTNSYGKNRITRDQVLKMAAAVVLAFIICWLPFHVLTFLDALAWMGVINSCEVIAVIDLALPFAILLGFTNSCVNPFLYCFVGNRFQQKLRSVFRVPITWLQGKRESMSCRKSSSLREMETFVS
Chain of human AT1R (P30556 whole entry): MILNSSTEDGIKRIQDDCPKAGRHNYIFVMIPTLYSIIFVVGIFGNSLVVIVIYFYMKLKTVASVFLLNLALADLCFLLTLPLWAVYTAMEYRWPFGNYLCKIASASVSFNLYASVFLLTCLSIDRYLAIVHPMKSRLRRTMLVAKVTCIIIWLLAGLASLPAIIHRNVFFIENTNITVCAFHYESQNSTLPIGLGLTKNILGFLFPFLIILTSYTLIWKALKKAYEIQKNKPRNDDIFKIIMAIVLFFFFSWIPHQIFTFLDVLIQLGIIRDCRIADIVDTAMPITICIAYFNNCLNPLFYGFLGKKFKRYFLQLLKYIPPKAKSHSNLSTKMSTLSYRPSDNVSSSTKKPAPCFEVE
Chain of CYP3A4 (P08684 whole entry): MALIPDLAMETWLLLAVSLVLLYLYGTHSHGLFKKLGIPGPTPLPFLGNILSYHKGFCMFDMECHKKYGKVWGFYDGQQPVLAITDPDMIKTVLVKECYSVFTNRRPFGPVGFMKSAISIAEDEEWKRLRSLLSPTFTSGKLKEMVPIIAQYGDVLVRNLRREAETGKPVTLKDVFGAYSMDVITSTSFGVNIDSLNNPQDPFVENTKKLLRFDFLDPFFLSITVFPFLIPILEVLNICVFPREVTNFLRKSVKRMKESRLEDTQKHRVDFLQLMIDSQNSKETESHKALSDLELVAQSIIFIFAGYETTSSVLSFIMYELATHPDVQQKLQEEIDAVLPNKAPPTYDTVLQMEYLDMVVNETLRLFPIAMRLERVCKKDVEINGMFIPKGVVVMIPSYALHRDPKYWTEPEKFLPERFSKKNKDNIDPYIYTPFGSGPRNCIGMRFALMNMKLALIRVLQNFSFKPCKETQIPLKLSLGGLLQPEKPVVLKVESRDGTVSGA

Structure (SMILES)	IC50 [1]	inhibition at 1 µM [2]	inhibition at 10 µM [2]	IC50 [2]	inhibition at 10 µM [3]	inhibition at 10 µM [4]	inhibition at 10 µM [5]
CCCCOC(=O)NS(=O)(=O)c1ccc(C(F)(F)F)cc1N1CCN(Cc2nc3ccccc3n2C)CC1 [Compound A-09, butyl N-[2-[4-[(1-methylbenzimidazol-2-yl)methyl]piperazin-1-yl]-4-(trifluoromethyl)phenyl]sulfonylcarbamate]	2180 nM	< 30%	< 30%	36500 nM	–	–	–
CCCCNC(=O)NS(=O)(=O)c1ccc(C(F)(F)F)cc1N1CCN(Cc2nc3ccccc3n2C)CC1 [Compound A-10, 1-butyl-3-[2-[4-[(1-methylbenzimidazol-2-yl)methyl]piperazin-1-yl]-4-(trifluoromethyl)phenyl]sulfonyl-urea]	–	< 30%	< 30%	–	38.6%	14.8%	54.2%
CCCCNC(=O)NS(=O)(=O)c1ccc(C)cc1N1CCN(Cc2nc3ccccc3n2C)CC1 [Compound A-12, 1-butyl-3-[4-methyl-2-[4-[(1-methylbenzimidazol-2-yl)methyl]piperazin-1-yl]phenyl]sulfonyl-urea]	1270 nM	< 30%	< 30%	–	–	–	–
CC(C)Cc1ccc(-c2nn[nH]n2)c(N2CCN(Cc3nc4ccccc4n3C)CC2)c1 [Compound A-20, 2-[[4-[5-isobutyl-2-(2H-tetrazol-5-yl)-phenyl]piperazin-1-yl]methyl]-1-meth-yl-benzimidazole]	510 nM	< 30%	< 30%	49700 nM	–	–	–
CC(C)Oc1ccc(-c2nn[nH]n2)c(N2CCN(Cc3nc4ccccc4n3C)CC2)c1 [Compound A-24, 2-[[4-[5-isopropoxy-2-(2H-tetrazol-5-yl)phenyl]piperazin-1-yl]methyl]-1-methyl-benzimidazole]	7140 nM	< 30%	< 30%	–	30.9%	3.85%	59.5%
CC(C)Cc1ccc(-c2nn[nH]n2)c(N2CCN(Cc3nc4ccccc4c(=O)[nH]3)CC2)c1 [Compound A-31, 2-[[4-[5-isobutyl-2-(2H-tetrazol-5-yl)phenyl]piperazin-1-yl]methyl]-3H-quinazolin-4-one]	2070 nM	< 30%	< 30%	–	73%	23.1%	94.6%
CC(C)Oc1ccc(-c2nn[nH]n2)c(N2CCN(Cc3nc4ccccc4c(=O)[nH]3)CC2)c1 [Compound A-32]	14700 nM	< 30%	< 30%	–	48.6%	38.2%	68.2%
CC(C)Oc1ccc(-c2nn[nH]n2)c(N2CCN(Cc3nc4ccccc4s3)CC2)c1 [Compound A-51, 2-[[4-[5-isoprop-oxy-2-(2H-tetrazol-5-yl)phenyl]piper-azin-1-yl]methyl]-1,3-benzothiazole]	2110 nM	< 30%	< 30%	55000 nM	–	–	–
Cc1cc(CN2CCN(c3cc(CC(C)C)ccc3-c3nn[nH]n3)CC2)no1 [Compound A-82, 3-[[4-[5-isobutyl-2-(2H-tetrazol-5-yl)phenyl]piperazin-1-yl]methyl]-5-methyl-isoxazole]	3200 nM	< 30%	< 30%	–	-4.12%	-2.54%	50.6%
CC(C)Cc1ccc(-c2nn[nH]n2)c(N2CCN(Cc3nccn3C)CC2)c1 [Compound A-83, 1-[5-isobutyl-2-(2H-tetrazol-5-yl)-phenyl]-4-[(1-meth-ylimidazol-2-yl)-methyl]piperazine]	1780 nM	< 30%	< 30%	–	6.38%	-0.65%	38.7%
CC(C)Cc1ccc(-c2nn[nH]n2)c(N2CCN(Cc3ccnn3C)CC2)c1 [Compound A-84, 1-[5-isobutyl-2-(2H-tetrazol-5-yl)phenyl]-4-[(1-methylpyrazol-5-yl)methyl]piperazine]	2370 nM	< 30%	< 30%	–	18.9%	-7.67%	49.1%
CC(C)Cc1ccc(-c2nn[nH]n2)c(N2CCN(Cc3ncccn3)CC2)c1 [Compound A-88]	15500 nM	< 30%	< 30%	–	17.6%	6.32%	21.1%
CC(C)Cc1ccc(-c2nn[nH]n2)c(N2CCN(Cc3cccnn3)CC2)c1 [Compound A-90, 3-[[4-[5-isobutyl-2-(2H-tetrazol-5-yl)phenyl]piperazin-1-yl]methyl]pyridazine]	2030 nM	< 30%	< 30%	–	27.9%	1.84%	55.3%
CC(C)Cc1cc(F)c(-c2nn[nH]n2)c(N2CCN(Cc3cccnn3)C(C)C2)c1 (centres unmarked) [Compound A-173, 3-[[4-[3-fluoro-5-isobutyl-2-(2H-tetrazol-5-yl)phenyl]-2-methyl-piperazin-1-yl]methyl]pyridazine]	16 nM	< 30%	< 30%	–	8.93%	16.3%	29.4%
CC(C)Cc1cc(F)c(-c2nn[nH]n2)c(N2CCN(Cc3cccnn3)[C@@H](C)C2)c1 [Compound A-174, 3-[[(2S)-4-[3-fluoro-5-isobutyl-2-(2H-tetrazol-5-yl)phenyl]-2-methyl-piperazin-1-yl]methyl]pyridazine]	2.35 nM	< 30%	< 30%	–	26.5%	9.35%	36%
CCC1CN(Cc2cccnn2)CCN1c1cc(CC(C)C)cc(F)c1-c1nn[nH]n1 (centres unmarked) [Compound A-181, 3-[[3-ethyl-4-[3-fluoro-5-isobutyl-2-(2H-tetrazol-5-yl)phenyl]piperazin-1-yl]methyl]pyridazine]	14.8 nM	< 30%	< 30%	–	–	–	–
CC(C)Cc1cc(F)c(-c2nn[nH]n2)c(N2CC(C)N(Cc3cccnn3)CC2C)c1 (centres unmarked) [Compound A-183, 3-[[4-[3-fluoro-5-isobutyl-2-(2H-tetrazol-5-yl)phen-yl]-2,5-dimethyl-piperazin-1-yl]-methyl]pyridazine]	8.33 nM	< 30%	< 30%	–	–	–	–
